Here are results for 3 molecules from US6596545B1, “Microdevices for screening biomolecules” (priority 1998, dated 2003).

Holding throughout (assay type): biochemical
The target of assay [1] is L10R HIV protease variant (Human immunodeficiency virus type 1 group M subtype B, UniProt P04585, L498R). Conditions: substrate Dns-SQNYPIVW, pH 5.5. Here is the method:
(§1) HIV protease variants, in the form of HIV-GST-K6, and GST-K6 are immobilized to the aminoreactive monolayer surface of the microchannel device (see Example 4, above). HIV-GST-K6 and GST-K6 are diluted to concentrations of 1 μg/ml in 25 mM HEPES buffer (pH 7.5) containing 150 mM NaCl. First, 50 μl of protein-free buffer is transferred through the channels to hydrate the monolayer surface. After 5 min of incubation, 10 μl of the corresponding protein solutions are flushed through the channels to guarantee total replacement with protein-containing solution. Immobilization is finished after 30 min at room temperature. The channels are rinsed with 50 μl immobilization buffer and subjected to analysis. […] Ultrapure water with a resistance of 18 MΩcm is generally used for all aqueous buffers (purified by passage through a Barnstead Nanopure® system).
(§2) HIV protease requires at least a heptapeptide substrate (Moore et al., Biochem. Biophys. Res. Commun., 1989, 159:420). To analyze the activity of the different HIV variants, a continuous assay based on intra-molecular fluorescence resonance energy transfer (FRET) is used. […] Excitation of Trp is at […], and emission of Dns is at 575 nm. Cleavage of the peptide at the Tyr-Pro bond reduces the Dns emission and increases Trp emission at 360 nm. The modified heptapeptide; Dns-[…] is prepared as described (Geoghegan et al.) and analyzed by amino acid analysis, nuclear magnetic resonance and mass spectrometry. The purity is checked by HPLC analysis using a Vydac C-4 column and an acetonitrile gradient in 0.1% TFA. In order to test the activity of all the HIV variants described above, each microchannel with an immobilized HIV variant (see Example 6) is filled with 20 μM of Dns-[…] in 50 mM sodium acetate, pH 5.5, 13% glycerol, 10 mM DTT. Addition of the substrate to the immobilized proteins leads to time-dependent intensity changes in the fluorescence emission spectrum. […] To control for changes in background fluorescence, GST-K6 fusion protein is measured in parallel.
(§3) Competition assays can be carried out to test the specificity of the proteolysis by the HIV variants.

The target in assay [2] is HIV protease A71V variant (Human immunodeficiency virus type 1 group M subtype B, UniProt P04585, A559V/P588I). Particulars: substrate Dns-SQNYPIVW, pH 5.5. The protocol:
as §1, §2, §3

Assay [3] deals with HIV variants (HIV protease variants, HIV-GST-K6). In words: FRET protease activity assay in microchannels, immobilized HIV protease variants. Particulars: all immobilized variants other than G48V or L90M; substrate Dns-SQNYPIVW 20 μM, pH 5.5. The protocol:
HIV protease variants, in the form of HIV-GST-K6, and GST-K6 are immobilized to the aminoreactive monolayer surface of the microchannel device (see Example 4, above). HIV-GST-K6 and GST-K6 are diluted to concentrations of 1 μg/ml in 25 mM HEPES buffer (pH 7.5) containing 150 mM NaCl. First, 50 μl of protein-free buffer is transferred through the channels to hydrate the monolayer surface. After 5 min of incubation, 10 μl of the corresponding protein solutions are flushed through the channels to guarantee total replacement with protein-containing solution. Immobilization is finished after 30 min at room temperature. The channels are rinsed with 50 μl immobilization buffer and subjected to analysis. […]
HIV protease requires at least a heptapeptide substrate (Moore et al., Biochem. Biophys. Res. Commun., 1989, 159:420). To analyze the activity of the different HIV variants, a continuous assay based on intra-molecular fluorescence resonance energy transfer (FRET) is used. […] The modified heptapeptide; Dns-SQNYPIVW is prepared as described (Geoghegan et al.) and analyzed by amino acid analysis, nuclear magnetic resonance and mass spectrometry. […] Addition of the substrate to the immobilized proteins leads to time-dependent intensity changes in the fluorescence emission spectrum. […] To control for changes in background fluorescence, GST-K6 fusion protein is measured in parallel. […]

In assay [4] the target is HIV protease L63P variant (Human immunodeficiency virus type 1 group M subtype B, UniProt P04585, L551P). Conditions: substrate Dns-SQNYPIVW, pH 5.5. The protocol: as §1, §2, §3
In assay [5] the target is HIV protease V82F variant (Human immunodeficiency virus type 1 group M subtype B, UniProt P04585, V570F). Conditions: substrate Dns-SQNYPIVW, pH 5.5. Here is the method: as §1, §2, §3
Assay [6] addresses HIV protease 184V variant (Human immunodeficiency virus type 1 group M subtype B, UniProt P04585, I572V/P588I). Conditions: substrate Dns-SQNYPIVW, pH 5.5. The protocol: as §1, §2, §3
Assay [7] has as its target HIV protease M461 variant (Human immunodeficiency virus type 1 group M subtype B, UniProt P04585, M534I). Particulars: substrate Dns-SQNYPIVW, pH 5.5. The protocol:
as §1, §2, §3

Molecules are shown by their SMILES.

Take `CC(C)(C)NC(=O)[C@@H]1CN(Cc2cccnc2)CCN1C[C@@H](O)C[C@@H](Cc1ccccc1)C(=O)N[C@H]1c2ccccc2C[C@H]1O` [Indinavir]: the “decrease of protease activity” value in assay [1] is “not able to decrease the activity”. Also, in assay [2], the “block of protease activity” value was “the A71V variant is not affected”.

For the molecule `CC(C)(C)NC(=O)[C@@H]1C[C@@H]2CCCC[C@@H]2CN1C[C@@H](O)[C@H](Cc1ccccc1)NC(=O)[C@H](CC(N)=O)NC(=O)c1ccc2ccccc2n1` [Sequinavir], the “inhibition of HIV variants” value in assay [3] is recorded as “will inhibit all the HIV variants except those containing either the G48V or the L90M mutation”.

Take `CC(C)c1nc(CN(C)C(=O)N[C@H](C(=O)N[C@@H](Cc2ccccc2)C[C@H](O)[C@H](Cc2ccccc2)NC(=O)OCc2cncs2)C(C)C)cs1` [Ritonavir]: the “block of protease activity” value in assay [4], in assay [5], in assay [6], in assay [7] and in assay [2] was “unable to block the activity” in each case.
